{"source": "patent US8658677B2", "about": "“Pyridyl-2-methylamino compounds, compositions and uses thereof” (Aria Neurosciences Inc., priority 2011, dated 2014)", "key": {"[1]": {"test_system": "APP", "test": "Acute treatment experiment: brain soluble Aβ40, APP, C99 and C83", "format": "in vivo, mice", "settings": "five days ip, ARN2966 50 mg/kg/day, Compound E 3 mg/kg/day", "method": "Furthermore, we conducted an acute treatment experiment where six months old female APPSW/PS1dE9 mice (n=3/group) were treated for five days with ARN2966 (50 mg/kg/day), Compound E (3 mg/kg/day) or Vehicle injected intraperitoneally. Mice were killed three hours after the last injections. The level of soluble Aβ40 was measured in the brain aliquots following diethylamine (DEA) extraction. It was lower in ARN2966 and Compound E treated groups by 39% (p<0.05) and 60% (p<0.05) comparing to vehicle treated mice, respectively (p<0.05; FIG. 6E).\nFIGS. 6.(A, B) ARN2966 treatment reduces load of Aβ plaques (n=10 ARN2966, n=15 Vehicle). (B) Representative photomicrograph of Th-S stained brain sections from vehicle and ARN2966 treated 10 month old, female APPSW/PS1dE9reveal a difference in the load of Aβ plaques. […] (D) Reduced Aβ40 and Aβ42 levels in FA extracted brain homogenate, which represent the total brain content of Aβ peptides in ARN2966 treated animals (ELISA). (E) Reduced soluble Aβ40 level in DEA extracted brain homogenate, of ARN2966 and Compound E treated mice (ELISA). […] Aβ concentrations in (C) (D) and (E) are given per gram of wet brain. All values are given as mean±SEM. Statistical analysis was done using two-tailed unpaired t-test, following confirmation of normal distribution of data using Shapiro-Wilk test."}, "[2]": {"test_system": "APP", "test": "APP, C99, C83 and sAPP levels in 751APPSW CHO cells (immunoblot, immunostaining)", "format": "cell-based, human", "settings": "751APPSW CHO clone"}, "[3]": {"molecular_target": "T1, Aβ40 (Homo sapiens, UniProt P05067)", "T1 construct": "host or cells: chemical solid-phase peptide synthesis (no expression host)", "T1 sequence (P05067 672-711)": "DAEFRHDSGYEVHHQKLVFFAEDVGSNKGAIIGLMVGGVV", "test": "Oligomerization assay", "format": "biochemical", "settings": "100 μM Aβ40, 10 μM compound, 24 h; for amount of oligomers on SDS-PAGE: lanes 3-5", "method": "(§1) […] monomerized synthetic Aβ40 was incubated in 0.1M Tris pH 7.0, T=37° C. for 8 days in the presence of 0-100 μM concentration of compounds. […] An arrow indicates Aβ monomers clustered in ill developed protofibril. (C) Oligomerization assay. ARN4261 and ARN4224 reduced the amount of Aβ oligomers by 78% and 74%, respectively p<0.001. A compound 69b (GKLVFNmgA) was used as a positive control. 69b is homologous to Aβ sequence 17-21 and contains N-methyl glycine (Nmg), which renders it capable of anti-fibrillization and anti-oligomerization effect. (D) Principle of oligomerization assay. 100 μM Aβ40 was aggregated alone or with the addition of 10 μM of tested compounds [1:10 compound: Ab ratio] for 24 h in conditions promoting oligomers assembly, i.e., DMEM/F-12 medium+0.2% SDS, T=4° C. Prior to SDS-PAGE in non-reducing conditions samples were treated with glutaraldehyde. A strong smear of Aβ oligomers is seen between 37 and 70 KDa markers (arrows) in lane 2, and a dense band below the 25 KDa marker reflects Aβ monomers non-dissociated by 10% polyacrylamide gel. No oligomers above 37 KDa marker are seen in lane 1 containing only Aβ monomers run as a control. […] (E) TEM of Aβ oligomers. […] Yellow arrowhead indicates smaller oligomers."}, "[4]": {"test_system": "SK-N-SH human neuroblastoma cells", "test": "Toxicity by MTT cell viability and LDH release assays", "format": "cell-based", "settings": "100 μM", "method": "The effect of 0.01-100 μmol/L concentrations of investigational compounds was tested on the viability of the N2a murine neuroblastoma cell line (American Type Culture Collection, Manassas, Va.). N2a cells were grown in Eagle's minimal essential medium with the addition of 10% fetal bovine serum, streptomycin and gentomycin (Sigma, St. Louis, Mo.), harvested with 2% trypsin and plated at 10,000 cells/100 μL per well in flatbottom, 96-well microtiter plates. The cells were allowed to attach to the plate overnight in an incubator (37° C., 5% CO2) and in the following morning stocks of investigational compounds (50 mmol/L stock diluted in DMSO) were added to cells to achieve the final concentration 0.01-100 μmol/L. Adequate amounts of DMSO (Dimethyl sulfoxide, Sigma, St. Louis, Mo.) were added to control cells. Cells were grown in the presence of investigational compounds for 48 h and then their viability was assessed using a metabolic assay, which is based on cleavage of the yellow tetrazolium salt (MTT) to purple formazan crystals by viable cells. The MTT assay (Roche Molecular Biochemicals, Indianapolis, Ind.) was performed according to the manufacturer's instructions. The results from cell culture neurotoxicity studies were evaluated by one-way analysis of variance, followed by a Dunnett's test as a post hoc analysis.\nAs shown in FIG. 2 (MTT assay), the compounds were tested for toxicity in SK-N-SH human neuroblastoma cells using MTT cell viability and LDH release (membrane integrity) assays."}, "[5]": {"molecular_target": "T1, Aβ40", "test": "Thioflavin-T fibrillization assay", "format": "biochemical", "source_text": "Synthetic Aβ 1-40 peptide (sequence: […]) was synthesized at the W.M. Keck Foundation Facility (Yale University, New Haven, Conn.) by solid-phase technique on a p-methyl-benzhydrylamine resin, using a Biosearch SAM 2 synthesizer and purified by high performance liquid chromatography (HPLC) with the use of a reverse-phase support medium (Delta-Bondapak) on a 0.78×30 cm column with a 0-66% linear gradient of acetonitrile in 0.1% (v/v) trifluroacetic acid, as previously described. The peptide content of the eluate was monitored by measurement of its absorption at 214 nm. To verify the sequence and purity of the peptide, linear, time-of-flight mass spectrometry was performed at the Skirball Institute at New York University. For aggregation studies the peptide was diluted in 1,1,1,3,3,3-hexafluoro-2-propanol (HFIP; Sigma St. Loius, Mo.) at a concentration of 10 mM/mL, aliquoted and lyophilized. HFIP treatment renders peptides monomeric with minimal β-sheet content. Lyophilized peptides were stored at −80° C. and resuspended immediately prior to each experiment in the appropriate diluent.\nThe effect of compounds of the present invention on aggregation of Aβ 1-40 peptide was tested using a Thioflavin-T assay according to previously published methods. Aggregation of Aβ 1-40 incubated alone was measured for comparison. Aβ 1-40 was HFIP treated (as described above) and reconstituted in 100 mM Tris buffer (pH 7.4) to obtain a 100 μmol/L concentration. Stock of investigational compounds (50 mmol/L stock diluted in DMSO) was added to Aβ 1-40 to achieve of a concentration 10 or 100 μmol/L of investigational compound in 100 μmol/L of Aβ 1-40. All incubations were performed over a period of 7 days at 37° C. and the incubation mixture was slowly mixed for 6 hours every 24 h. At the conclusion of the experiment samples containing 15 μg of Aβ 1-40 with and without investigational compounds were added to 1 mL of 50 mM glycine, pH 9.2 and 2 μM of Thioflavin-T (Sigma Chemical, Co.; St. Louis, Mo.). Fluorescence was measured at an excitation of 435 nm and an emission of 485 nm in a Perkin-Elmer LS-50B fluorescence spectrophotometer (Perkin Elmer Instruments, Shelton, Conn.). A time scan of fluorescence was performed and three values after the decay reached a plateau (280, 290, 300 seconds) were averaged. The background fluorescence of 40 μL of Tris buffer added to 2 μM/L of Thioflavin-T solution was subtracted. Samples were run in duplicate. Differences in amount of fibrils formed in the presence of investigational compounds were evaluated by means of one-way ANOVA followed by a Dunnet post-hoc test using Statistica (version 6.1, StatSoft Inc., OK).\nas §1"}}, "note": "“Also recorded” adds a separate entry of the source."}
{"compound": "C[C@H](NC(=O)Cc1cc(F)cc(F)c1)C(=O)N[C@H]1N=C(c2ccccc2)c2ccccc2N(C)C1=O", "note": "[Compound E, (S,S)-2-[2-(3,5-difluorophenyl)-acetylamino]-N-(1-methyl-2-oxo-5-phenyl-2,3-dihydro-1H-benzo[e][1,4]diazepin-3-yl)-propionamide, reference compound]", "values": [{"measurement": "APP, C99 and C83 signal in brain homogenate (western immunoblotting)", "setting": "[1]", "value": "modest increase in C99 and C83 signal"}, {"measurement": "lowering of soluble Aβ40 (DEA extraction) in brain vs vehicle", "setting": "[1]; killed three hours after last injection", "value": 60, "unit": "%"}, {"measurement": "level of APP FL, C99 and C83 in cell lysates", "setting": "[2]", "value": "some accumulation of APP FL, and substantial accumulation of C99 and C83; also recorded: modestly increased the APP FL level and substantially increased levels of C83 and C99"}, {"measurement": "sAPP (sAPPα and total sAPP stub) in conditioned media", "setting": "[2]", "value": "increased level of sAPP stubs"}]}
{"compound": "GKLVFNmgA [69b, reference compound]", "values": [{"measurement": "amount of oligomers on SDS-PAGE", "setting": "[3]", "value": "reduced amount of oligomers"}]}
{"compound": "C[C@H](NC(=O)Cc1cc(F)cc(F)c1)C(=O)N[C@H](C(=O)OC(C)(C)C)c1ccccc1", "note": "[Compound D, N-[N-(3,5-difluorophenacetyl)-L-alanyl]-S-phenylglycine t-butyl ester, reference compound]", "values": [{"measurement": "level of APP FL, C99 and C83 in cell lysates", "setting": "[2]", "value": "some accumulation of APP FL, and substantial accumulation of C99 and C83; also recorded: modestly increased the APP FL level and substantially increased levels of C83 and C99"}]}
{"compound": "COc1ccc(/C=N/Nc2nc3ccccc3n2C)cc1O", "note": "[ARN4224]", "values": [{"measurement": "toxicity in both MTT and LDH release assays", "setting": "[4]", "value": "showed toxicity"}, {"measurement": "EC50", "setting": "[5]; 100 μM HFIP monomerized synthetic Aβ40, 0.1M Tris pH 7.0, 37° C., 8 days, 0-100 μM compound, read-out: EC50 of fibril reduction", "value": 44, "unit": "µM"}, {"measurement": "Emax", "setting": "[5]; pH 7, read-out: EMAX (% of maximal fibril reduction)", "value": 55, "unit": "%"}, {"measurement": "reduction of the amount of Aβ oligomers", "setting": "[3]; DMEM/F-12 + 0.2% SDS, 4° C.", "value": 74, "unit": "%"}, {"measurement": "amount of oligomers on SDS-PAGE", "setting": "[3]", "value": "reduced amount of oligomers"}]}
